{
  "source": "paper PMC5989765",
  "about": "“The safety, tolerability, and pharmacokinetic profile of GSK2838232, a novel 2nd generation HIV maturation inhibitor, as assessed in healthy subjects” (Pharmacology Research & Perspectives, 2018)",
  "key": {"[1]": {"assay": "Study 204953 Part 1A: single doses 50-250 mg API PiB with RTV, healthy subjects", "type": "in vivo, human", "conditions": "for Cmax / Tmax / concentration at 24 h / AUC / half-life: human, plasma, oral; for Tmax / concentration at 24 h: median (range); for concentration at 24 h: read-out: C24; for AUC: read-out: AUC(0‐∞); for half-life: read-out: t½ (converted); for dose proportionality of exposure (AUC and C max): single doses 50 to 250 mg with RTV", "protocol": "This study was planned as an extension of the previously conducted single‐ and multiple‐dose escalation studies described above. It was a double‐blind, placebo‐controlled, single and repeat dose escalation study of micronized API GSK2838232 with RTV conducted in three parts (Part 1A, Part 1B, and Part 2).\nIn Part 1A, a cohort of subjects was given single doses of 50, 100, and 250 mg of GSK2838232 with RTV, following 2 days of RTV predosing, in a sequential dose‐escalation design. Part 1B studied the relative bioavailability of GSK2838232 given as 100 mg (2 × 50 mg) capsules versus the reference API (PiB) in a two‐period crossover design with RTV, following 2 days of RTV predosing. In Period 3, subjects took the capsule formulation and RTV with a moderate fat meal (30% of calories from fat).\n(§1) Blood samples were taken via an indwelling cannula or by direct venipuncture, collected into a di‐potassium ethylenediaminetetraacetic acid (K2 EDTA) tube, and placed on wet ice. Samples were centrifuged at approximately 1500g for 10 minutes at approximately 4°C. Exactly 500 μL of the resulting plasma was transferred into labeled 1.4 mL Matrix TrakMate Tubes containing exactly 500 μL of 50 mmol/L citrate buffer, pH 4.0, and mixed well. When 500 μL of plasma was not able to be transferred, the ratio of plasma to citrate buffer was kept at 1:1. Buffered plasma samples were kept on ice and frozen at −70°C within 1 hour of collection. Plasma samples were analyzed for GSK2838232 using a validated analytical method based on protein precipitation, followed by high performance liquid chromatography with tandem mass spectrometry (HPLC/MS/MS) analysis.\n(§2) Extracts were analyzed using HPLC (Shimadzu, Nexera, 30 series) and tandem mass spectrometry detection (HPLC‐MS/MS). The mass spectrometer used was an API‐5500 using IonSpray interface (500 V) in positive mode monitoring. The mass transitions were 809.5 to 255.1 and 816.5 to 262.1 for GSK2838232 and [2H7] GSK2838232 (the isotopically labeled internal standard), respectively. The chromatographic conditions utilized a Waters Acquity UPLC BEH C18 column (50 × 2.1 mm, 1.7 μm) with mobile phases consisting of 1 mmol/L ammonium formate:formic acid (100:0.005) (mobile phase A) and acetonitrile:formic acid (100:0.1) (mobile phase B) at a flow rate of 0.6 mL/min, with pump B at 63% held for 2 minutes. The assay was validated to have precision (%RSD) of 0.7%‐6.5% (within‐run) and 1.0%‐5.9% RSD (between‐run) and with accuracy (%bias) of 0.0%‐1.6%. […] The lower limit of quantification (LLQ) was 0.5 ng/mL, using a 50 μL aliquot of K2EDTA acidified plasma. The higher limit of quantification (HLQ) was 500 ng/mL.\n(§3) The PK parameters were calculated by standard noncompartmental analysis based on actual sampling times using WinNonlin Version 6.3 or higher. Estimation of AUC used the linear up/log down trapezoidal rule."}, "[2]": {"assay": "Study 200207: repeat dose 20-50 mg QD for 8 days, SDD, healthy subjects", "type": "in vivo, human", "protocol": "This study was conducted in parallel with Study 200912 and was planned as a two‐part, double‐blind, placebo‐controlled, repeat dose escalation study of GSK2838232 with and without RTV for 8‐11 days. Subjects were randomized 3:1 to receive GSK2838232 or placebo. Part A was designed to evaluate GSK2838232 given alone for 8 days (20 mg and 50 mg GSK2838232 once‐daily (QD) for 8 days, respectively) and Part B was designed to evaluate GSK2838232 when co‐administered with 100 mg RTV QD for 11 days. Because of the occurrence of an SAE that was eventually determined to be unlikely to be related to GSK2838232 (see Safety discussion), the study was terminated early after one cohort in Part B (10 mg GSK2838232 + 100 mg RTV QD) had completed only 5 days of the planned 11‐day regimen.\nas §1, §2, §3"}, "HIV‐1": {"system": "HIV‐1", "parameters": "method as in earlier work", "conditions": "cited from earlier work"}, "[3]": {"conditions": "single 50 mg API PiB, fasted, with ritonavir (2 days predosing)"}, "[4]": {"conditions": "single 100 mg API PiB, fasted, with ritonavir (2 days predosing), geometric mean (95% CI)"}, "[5]": {"conditions": "single 100 mg API PiB, fasted, with ritonavir (2 days predosing)"}, "[6]": {"conditions": "single 250 mg API PiB, fasted, with ritonavir (2 days predosing), geometric mean (95% CI)"}, "[7]": {"conditions": "single 250 mg API PiB, fasted, with ritonavir (2 days predosing)"}, "[8]": {"conditions": "repeated daily dosing with 50 mg, unboosted"}},
  "note": "“Also recorded” adds a separate entry of the source. Like-named read-outs stand apart in the source and are kept apart here.",
  "data": [
    {"compound": "CC(C)C1=C2[C@H]3CC[C@@H]4[C@@]5(C)CC[C@H](OC(=O)CC(C)(C)C(=O)O)C(C)(C)[C@@H]5CC[C@@]4(C)[C@]3(C)CC[C@@]2([C@@H](O)CN(CCN(C)C)Cc2ccc(Cl)cc2)CC1=O", "note": "[GSK2838232]", "values": [
      {"measurement": "Cmax", "setting": "[1]; single 50 mg API PiB, fasted, with ritonavir (2 days predosing), geometric mean (95% CI)", "value": 15.7, "unit": "ng/mL"},
      {"measurement": "Tmax", "setting": "[1]; [3]", "value": 3, "unit": "h"},
      {"measurement": "concentration at 24 h", "setting": "[1]; [3]", "value": 7.26, "unit": "ng/mL"},
      {"measurement": "Cmax", "setting": "[1]; [4]", "value": 24.7, "unit": "ng/mL"},
      {"measurement": "AUC", "setting": "[1]; [4]", "value": 846, "unit": "ng·h/mL"},
      {"measurement": "half-life", "setting": "[1]; [4]", "value": 17.9, "unit": "h"},
      {"measurement": "Tmax", "setting": "[1]; [5]", "value": 5, "unit": "h"},
      {"measurement": "concentration at 24 h", "setting": "[1]; [5]", "value": 13.2, "unit": "ng/mL"},
      {"measurement": "Cmax", "setting": "[1]; [6]", "value": 63, "unit": "ng/mL"},
      {"measurement": "AUC", "setting": "[1]; [6]", "value": 1690, "unit": "ng·h/mL"},
      {"measurement": "half-life", "setting": "[1]; [6]", "value": 17.9, "unit": "h"},
      {"measurement": "Tmax", "setting": "[1]; [7]", "value": 5.98, "unit": "h"},
      {"measurement": "concentration at 24 h", "setting": "[1]; [7]", "value": 24, "unit": "ng/mL"},
      {"measurement": "CL/F", "setting": "[1]; [4]", "value": "118 (93.3, 150) L/h"},
      {"measurement": "dose proportionality of exposure (AUC and C max)", "setting": "[1]", "value": "proportional PK; also recorded: proportional pharmacokinetics"},
      {"measurement": "dose proportionality of exposure (AUC and C max)", "setting": "[1]; listed as GSK283832", "value": "generally dose proportional"},
      {"measurement": "relatedness of the two cardiovascular events", "setting": "[2]; Study 200207, after expert evaluation", "value": "the likelihood of a relationship was very low"},
      {"measurement": "cardiovascular finding: arrhythmia", "setting": "[2]; Study 200207, one subject, 39 hours after last of eight daily 50 mg doses", "value": "a nonsustained ventricular tachycardia (NSVT) that was associated with dyspnea in another"},
      {"measurement": "cardiovascular finding: troponin", "setting": "[2]; Study 200207, one subject, second day of dosing with 20 mg", "value": "a mild troponin elevation in one subject"},
      {"measurement": "concentration at 39 hours", "setting": "[2]; human, plasma, oral, one subject, 39 hours after the last of eight daily 50 mg doses, read-out: plasma concentration at the time of the NSVT event", "value": "< 1", "unit": "ng/mL"},
      {"measurement": "half-life", "setting": "[2]; human, plasma, oral, without boosting, repeat dosing, read-out: t½ (converted)", "value": "~15", "unit": "h"},
      {"measurement": "accumulation ratio based on AUC", "setting": "[2]; [8]", "value": 1.2},
      {"measurement": "accumulation ratio based on C max", "setting": "[2]; [8]", "value": 1.1},
      {"measurement": "accumulation ratio based on Cτ", "setting": "[2]; [8]", "value": 1.4},
      {"measurement": "time to steady state", "setting": "[2]; unboosted", "value": 3, "unit": "days"},
      {"measurement": "dose proportionality of AUC and C max", "setting": "[2]; unboosted, 20 mg and 50 mg QD for 8 days", "value": "slightly less than dose‐proportional"},
      {"measurement": "increase in AUC and C max after a 2.5‐fold dose", "setting": "[2]; unboosted, 20 mg to 50 mg QD for 8 days", "value": "approximately 2 fold"},
      {"measurement": "shift in IC90 with human serum albumin added", "setting": "HIV‐1; assays to which human serum albumin was added", "value": "no significant shift"},
      {"measurement": "IC90 in cell‐based assays (termed PA‐IC90, protein‐adjusted 90% inhibitory concentration)", "setting": "HIV‐1; calculated", "value": 5, "unit": "ng/mL"},
      {"measurement": "IC90", "setting": "HIV‐1; calculated, read-out: IC90 in cell‐based assays", "value": 6.4, "unit": "nM"},
      {"measurement": "activity to viruses with key resistance mutations", "setting": "HIV‐1; panel of viruses", "value": "retains activity"}
    ]}
  ]
}
